The source of these data is PubChem BioAssay AID330 (DTP/NCI, 2004).

Several values for one entry are separate records, joined by “and”; a condition that tells them apart may be missing. Identical values can stand only once. Toxic doses and inconclusive results are not listed.

This experiment relates to P388 leukemia ip, CD2F1 mice, survival T/C. Nature of the experiment: NCI In Vivo Anticancer Drug Screen. Data for tumor model P388 Leukemia (intraperitoneal) in CD2F1 (CDF1) mice. Particulars: endpoint: median survival time, higher = longer survival. The gist of the method:
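Mice carrying the transplanted tumor received test compound or vehicle. Survival was recorded in each group, and the value is the treated-group measurement divided by that of the vehicle-treated control group.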

Where [1] appears, read: dose: 50.0 mg/kg/injection, schedule: Q01DX005 (ip), vehicle: saline with Tween-80.
The mark [2] stands for this setting: dose: 100.0 mg/kg/injection, schedule: Q01DX005 (ip), vehicle: saline with Tween-80.
Setting [3] is: dose: 50.0 mg/kg/injection, schedule: Q04DX003 (ip), vehicle: saline with Tween-80.
[4] abbreviates: dose: 50.0 mg/kg/injection, schedule: Q01DX005 (ip), vehicle: Klucel (hydroxypropylcellulose) (HPC).
Setting [5] is: dose: 100.0 mg/kg/injection, schedule: Q01DX005 (ip), vehicle: Klucel (hydroxypropylcellulose) (HPC).

Turning to `Cc1ncc(Cl)c2cc3ccccc3cc12`, the T/C by setting is: (dose: 50.0 mg/kg/injection, schedule: Q01DX009 (ip), vehicle: saline) 101 % of control and 89 % of control; (dose: 100.0 mg/kg/injection, schedule: Q01DX009 (ip), vehicle: saline) 99 % of control; (dose: 200.0 mg/kg/injection, schedule: Q01DX009 (ip), vehicle: saline) 99 % of control and 94 % of control.

Take `O=C(N/C(=C\c1ccccc1)C(=O)N1CCN(Cc2ccccc2)CC1)c1ccccc1`: the T/C runs as follows: under setting [1], 89 % of control; under setting [2], 88 % of control.

As to `N#C[S-].N#C[S-].[Au+3].[Au+3].[CH3-].[CH3-].[CH3-].[CH3-]`, the T/C by setting is: under setting [3], 100 % of control; (dose: 100.0 mg/kg/injection, schedule: Q04DX003 (ip), vehicle: saline with Tween-80) 120 % of control.

Take `CC(C)C/C=C\CCCCCCCCCC(=O)NCC(=O)O`: the T/C by setting is: (dose: 12.5 mg/kg/injection, schedule: Q01DX009 (ip), vehicle: distilled water + Tween-80) 93 % of control; (dose: 25.0 mg/kg/injection, schedule: Q01DX009 (ip), vehicle: distilled water + Tween-80) 92 % of control; (dose: 50.0 mg/kg/injection, schedule: Q01DX009 (ip), vehicle: distilled water + Tween-80) 95 % of control; (dose: 100.0 mg/kg/injection, schedule: Q01DX009 (ip), vehicle: distilled water + Tween-80) 93 % of control; (dose: 200.0 mg/kg/injection, schedule: Q01DX009 (ip), vehicle: distilled water + Tween-80) 100 % of control.

Regarding `CC(C)(C)NC1=C([N+](=O)[O-])CCCC1`, the T/C runs as follows: under setting [1], 93 % of control; under setting [2], 93 % of control.

For `CC(=O)OCC12C(OC(C)=O)C(=O)C3C(OC(C)=O)C14OC3(C)COC(=O)c1cccnc1C(C)C(C)C(=O)OC(C(OC(C)=O)C2OC(C)=O)C4(C)O` (centres undefined), the T/C (dose: 3.0 mg/kg/injection, schedule: Q01DX009 (ip), vehicle: Klucel (hydroxypropylcellulose) (HPC)) was 104 % of control; the T/C (dose: 6.0 mg/kg/injection, schedule: Q01DX009 (ip), vehicle: Klucel (hydroxypropylcellulose) (HPC)) was 93 % of control; the T/C (dose: 12.0 mg/kg/injection, schedule: Q01DX009 (ip), vehicle: Klucel (hydroxypropylcellulose) (HPC)) was 96 % of control; the T/C (dose: 24.0 mg/kg/injection, schedule: Q01DX009 (ip), vehicle: Klucel (hydroxypropylcellulose) (HPC)) was 96 % of control.

With `COC(=O)CN(CC(=O)OC)C1CC1N(CC(=O)OC)CC(=O)OC` (centres undefined), the T/C by setting is: (dose: 50.0 mg/kg/injection, schedule: Q01DX009 (ip), vehicle: Klucel (hydroxypropylcellulose) (HPC)) 89 % of control; (dose: 100.0 mg/kg/injection, schedule: Q01DX001 (ip), vehicle: Klucel (hydroxypropylcellulose) (HPC)) 98 % of control; (dose: 100.0 mg/kg/injection, schedule: Q01DX009 (ip), vehicle: Klucel (hydroxypropylcellulose) (HPC)) 97 % of control; (dose: 200.0 mg/kg/injection, schedule: Q01DX001 (ip), vehicle: Klucel (hydroxypropylcellulose) (HPC)) 102 % of control; (dose: 200.0 mg/kg/injection, schedule: Q01DX009 (ip), vehicle: Klucel (hydroxypropylcellulose) (HPC)) 95 % of control; (dose: 400.0 mg/kg/injection, schedule: Q01DX001 (ip), vehicle: Klucel (hydroxypropylcellulose) (HPC)) 89 % of control.

Turning to `CCCCNc1cc(Nc2ccc(Br)cc2)nc(N)n1`, the T/C by setting is: (dose: 6.25 mg/kg/injection, schedule: Q04DX003 (ip), vehicle: saline with Tween-80) 106 % of control; (dose: 12.5 mg/kg/injection, schedule: Q04DX003 (ip), vehicle: saline with Tween-80) 99 % of control; (dose: 25.0 mg/kg/injection, schedule: Q04DX003 (ip), vehicle: saline with Tween-80) 106 % of control; under setting [3], 100 % of control.

`CC1(C)N=C(N)N=C(N)N1c1cccc(CC(=O)Nc2ccc(S(=O)(=O)F)cc2)c1`: the T/C (dose: 200.0 mg/kg/injection, schedule: Q04DX003 (ip), vehicle: saline with Tween-80) is 122 % of control.

In the case of `O=C(CCl)N1c2ccccc2Sc2ccc(Cl)cc21`, the T/C is 117 % of control (dose: 3.13 mg/kg/injection, schedule: Q01DX009 (ip), vehicle: water); 117 % of control (dose: 6.25 mg/kg/injection, schedule: Q01DX009 (ip), vehicle: water); 111 % of control (dose: 12.5 mg/kg/injection, schedule: Q01DX009 (ip), vehicle: water).

For `CC1(C)CNC(=S)N1C1CCCCC1`, the T/C by setting is: (dose: 50.0 mg/kg/injection, schedule: Q01DX009 (ip), vehicle: suspension in saline) 97 % of control; (dose: 100.0 mg/kg/injection, schedule: Q01DX009 (ip), vehicle: suspension in saline) 104 % of control; (dose: 200.0 mg/kg/injection, schedule: Q01DX009 (ip), vehicle: suspension in saline) 93 % of control.

In the case of `O=P(OCCCl)(OCCCl)C(Nc1cccc2ccccc12)c1ccc(N(CCCl)CCCl)cc1` (centres undefined), the T/C is 98 % of control (dose: 60.0 mg/kg/injection, schedule: Q01DX005 (ip), vehicle: saline with Tween-80); 95 % of control (dose: 120.0 mg/kg/injection, schedule: Q01DX005 (ip), vehicle: saline with Tween-80); 99 % of control (dose: 240.0 mg/kg/injection, schedule: Q01DX005 (ip), vehicle: saline with Tween-80).

Turning to `CCn1cc(C(=O)O)c(=O)c2cc3c(cc21)OCO3`, the T/C runs as follows: (dose: 60.0 mg/kg/injection, schedule: Q01DX005 (ip), vehicle: Klucel (hydroxypropylcellulose) (HPC)) 100 % of control; (dose: 120.0 mg/kg/injection, schedule: Q01DX005 (ip), vehicle: Klucel (hydroxypropylcellulose) (HPC)) 103 % of control; (dose: 240.0 mg/kg/injection, schedule: Q01DX005 (ip), vehicle: Klucel (hydroxypropylcellulose) (HPC)) 100 % of control.

Turning to `COc1ccc2c(c1)S(=O)(=O)C(c1ccccc1)=CC2=O`, the T/C runs as follows: under setting [4], 114 % of control; under setting [5], 115 % of control; (dose: 200.0 mg/kg/injection, schedule: Q01DX005 (ip), vehicle: Klucel (hydroxypropylcellulose) (HPC)) 123 % of control.

Take `Nc1c(Cl)ncnc1NCCN1CCOCC1`: the T/C under setting [4] was 99 % of control and the T/C under setting [5] was 96 % of control.

On to `CCN=C(NCC)c1ccc(NC(=O)Nc2ccc(NC(=O)Nc3ccc(C(=NCC)NCC)cc3)cc2)cc1`, for which the T/C (dose: 3.12 mg/kg/injection, schedule: Q01DX005 (ip), vehicle: Klucel (hydroxypropylcellulose) (HPC)) is 107 % of control; the T/C (dose: 6.25 mg/kg/injection, schedule: Q01DX005 (ip), vehicle: Klucel (hydroxypropylcellulose) (HPC)) is 111 % of control; the T/C (dose: 12.5 mg/kg/injection, schedule: Q01DX005 (ip), vehicle: Klucel (hydroxypropylcellulose) (HPC)) is 116 % of control; the T/C (dose: 25.0 mg/kg/injection, schedule: Q01DX005 (ip), vehicle: Klucel (hydroxypropylcellulose) (HPC)) is 156 % of control; the T/C under setting [4] is 122 % of control.

As for `c1ccc2c(CC3NCCN3)cccc2c1`, the T/C is, setting by setting: (dose: 6.25 mg/kg/injection, schedule: Q01DX009 (ip), vehicle: saline) 100 % of control; (dose: 12.5 mg/kg/injection, schedule: Q01DX009 (ip), vehicle: saline) 100 % of control; (dose: 25.0 mg/kg/injection, schedule: Q01DX009 (ip), vehicle: saline) 92 % of control.
